Results: ChEMBL document CHEMBL5154765, “Design, synthesis, and biological evaluation of novel spiro[pyrrolidine-2,3'-quinolin]-2'-one derivatives as potential chitin synthase inhibitors and antifungal agents” (Eur J Med Chem, 2022)
In brackets after ≈: the same amount, converted by molar mass. Blank lines part the entries; values can stand above or below the compound they belong to. *1 amine or outer side, *2 acyl side, *3 side chain or, on linkers, in order; H or OH if unused. Where a SMILES comes first, the peptide text is derived from it. Bridges are numbered along the chain shown (N, C = ends). [ ]: non-standard residue; d: D form. The star is where a group is joined. hTyr(3S-OH,4S-OH,3'-OSO3H) = N[C@H](C(=O)O)[C@H](O)[C@@H](O)c1ccc(O)c(OS(=O)(=O)O)c1; Orn(4R-OH,5R-OH) = O=C([C@H](C[C@@H](O)[C@@H](O)N[*:3])N[*:1])[*:2]; Pro(3S-OH,4S-Me) = C[C@H]1CN[C@H](C(=O)O)[C@H]1O; X1 = CCCCCOc1ccc(-c2cc(-c3ccc(C(=O)*)cc3)no2)cc1; Gln(3R-OH) = NC(=O)C[C@@H](O)[C@H](N)C(=O)O; Hyp = O=C(O)[C@@H]1C[C@@H](O)CN1

Columns and labels:
[1] = test system: Candida tropicalis; experiment: Inhibition of Candida tropicalis ATCC750 chitin synthase at 300 ug/ml using UDP-GlcNAc as substrate incubated for 1 hr by microplate reader analysis relative to control; conditions: dose 300.0 µg/ml
[2] = Inhibition of Candida tropicalis ATCC750 chitin synthase using UDP-GlcNAc as substrate incubated for 1 hr by microplate reader analysis
[3] = test system: Candida albicans; experiment: Antifungal activity against Candida albicans ATCC 76615 assessed as reduction in fungal growth incubated for 24 hrs by two fold broth dilution method; format: functional
[4] = test system: Aspergillus flavus; experiment: Antifungal activity against Aspergillus flavus ATCC 16870 assessed as reduction in fungal growth incubated for 24 hrs by two fold broth dilution method; format: functional
[5] = test system: Aspergillus fumigatus; experiment: Antifungal activity against Aspergillus fumigatus GIMCC 3.19 assessed as reduction in fungal growth incubated for 24 hrs by two fold broth dilution method; format: functional
[6] = test system: Cryptococcus neoformans; experiment: Antifungal activity against Cryptococcus neoformans ATCC 32719 assessed as reduction in fungal growth incubated for 24 hrs by two fold broth dilution method; format: functional
[7] = test system: Candida albicans; experiment: Antifungal activity against Candida albicans ATCC 76615 assessed as reduction in fungal growth in presence of sorbitol incubated for 24 hrs by two fold broth dilution method; format: functional
[8] = test system: Aspergillus flavus; experiment: Antifungal activity against Aspergillus flavus ATCC 16870 assessed as reduction in fungal growth in presence of sorbitol incubated for 24 hrs by two fold broth dilution method; format: functional
[9] = test system: Aspergillus fumigatus; experiment: Antifungal activity against Aspergillus fumigatus GIMCC 3.19 assessed as reduction in fungal growth in presence of sorbitol incubated for 24 hrs by two fold broth dilution method; format: functional
[10] = test system: Cryptococcus neoformans; experiment: Antifungal activity against Cryptococcus neoformans ATCC 32719 assessed as reduction in fungal growth in presence of sorbitol incubated for 24 hrs by two fold broth dilution method; format: functional
[11] = test system: Candida albicans; experiment: Antifungal activity against fluconazole resistant Candida albicans ATCC 76615 assessed as reduction in fungal growth incubated for 24 hrs by two fold broth dilution method; format: functional
[12] = test system: Aspergillus flavus; experiment: Antifungal activity against fluconazole resistant Aspergillus flavus ATCC 16870 assessed as reduction in fungal growth incubated for 24 hrs by two fold broth dilution method; format: functional
[13] = test system: Aspergillus fumigatus; experiment: Antifungal activity against fluconazole resistant Aspergillus fumigatus GIMCC 3.19 assessed as reduction in fungal growth incubated for 24 hrs by two fold broth dilution method; format: functional
[14] = test system: Cryptococcus neoformans; experiment: Antifungal activity against fluconazole resistant Cryptococcus neoformans ATCC 32719 assessed as reduction in fungal growth incubated for 24 hrs by two fold broth dilution method; format: functional
[15] = test system: Candida albicans; experiment: Antifungal activity against micafungin resistant Candida albicans ATCC 76615 assessed as reduction in fungal growth incubated for 24 hrs by two fold broth dilution method; format: functional
[16] = test system: Candida albicans; experiment: Antifungal activity against Candida albicans ATCC 76615 incubated for 72 hrs in presence of fluconazole by checker board assay; format: functional
[17] = test system: Aspergillus flavus; experiment: Antifungal activity against Aspergillus flavus ATCC 16870 incubated for 72 hrs in presence of fluconazole by checker board assay; format: functional
[18] = test system: Aspergillus fumigatus; experiment: Antifungal activity against Aspergillus fumigatus GIMCC 3.19 incubated for 72 hrs in presence of fluconazole by checker board assay; format: functional
[19] = test system: Cryptococcus neoformans; experiment: Antifungal activity against Cryptococcus neoformans ATCC 32719 incubated for 72 hrs in presence of fluconazole by checker board assay; format: functional
[20] = test system: Candida albicans; experiment: Antifungal activity against Candida albicans ATCC 76615 assessed as fluconazole MIC incubated for 72 hrs by checker board assay; format: functional
[21] = test system: Aspergillus flavus; experiment: Antifungal activity against Aspergillus flavus ATCC 16870 assessed as fluconazole MIC incubated for 72 hrs by checker board assay; format: functional
[22] = test system: Aspergillus fumigatus; experiment: Antifungal activity against Aspergillus fumigatus GIMCC 3.19 assessed as fluconazole MIC incubated for 72 hrs by checker board assay; format: functional
[23] = test system: Cryptococcus neoformans; experiment: Antifungal activity against Cryptococcus neoformans ATCC 32719 assessed as fluconazole MIC incubated for 72 hrs by checker board assay; format: functional
[24] = test system: Cryptococcus neoformans; experiment: Synergistic antifungal activity against Cryptococcus neoformans ATCC 32719 assessed as fractional inhibitory concentration index incubated for 72 hrs in presence of fluconazole by checker board assay; format: functional
[25] = test system: Candida albicans; experiment: Synergistic antifungal activity against Candida albicans ATCC 76615 assessed as fractional inhibitory concentration index incubated for 72 hrs in presence of fluconazole by checker board assay; format: functional
[26] = test system: Aspergillus flavus; experiment: Synergistic antifungal activity against Aspergillus flavus ATCC 16870 assessed as fractional inhibitory concentration index incubated for 72 hrs in presence of fluconazole by checker board assay; format: functional
[27] = test system: Aspergillus fumigatus; experiment: Synergistic antifungal activity against Aspergillus fumigatus GIMCC 3.19 assessed as fractional inhibitory concentration index incubated for 72 hrs in presence of fluconazole by checker board assay; format: functional
[28] = test system: Candida albicans; experiment: Antifungal activity against Candida albicans ATCC 76615 incubated for 72 hrs in presence of polyoxin B by checker board assay; format: functional
[29] = test system: Aspergillus flavus; experiment: Antifungal activity against Aspergillus flavus ATCC 16870 incubated for 72 hrs in presence of polyoxin B by checker board assay; format: functional
[30] = test system: Aspergillus fumigatus; experiment: Antifungal activity against Aspergillus fumigatus GIMCC 3.19 incubated for 72 hrs in presence of polyoxin B by checker board assay; format: functional
[31] = test system: Cryptococcus neoformans; experiment: Antifungal activity against Cryptococcus neoformans ATCC 32719 incubated for 72 hrs in presence of polyoxin B by checker board assay; format: functional
[32] = test system: Candida albicans; experiment: Synergistic antifungal activity against Candida albicans ATCC 76615 assessed as fractional inhibitory concentration index incubated for 72 hrs in presence of polyoxin B by checker board assay; format: functional
[33] = test system: Aspergillus flavus; experiment: Synergistic antifungal activity against Aspergillus flavus ATCC 16870 assessed as fractional inhibitory concentration index incubated for 72 hrs in presence of polyoxin B by checker board assay; format: functional
[34] = test system: Aspergillus fumigatus; experiment: Synergistic antifungal activity against Aspergillus fumigatus GIMCC 3.19 assessed as fractional inhibitory concentration index incubated for 72 hrs in presence of polyoxin B by checker board assay; format: functional
[35] = test system: Cryptococcus neoformans; experiment: Synergistic antifungal activity against Cryptococcus neoformans ATCC 32719 assessed as fractional inhibitory concentration index incubated for 72 hrs in presence of polyoxin B by checker board assay; format: functional
[36] = test system: Candida albicans; experiment: Antifungal activity against Candida albicans ATCC 76615 assessed as polyoxin B MIC incubated for 72 hrs by checker board assay; format: functional
[37] = test system: Aspergillus flavus; experiment: Antifungal activity against Aspergillus flavus ATCC 16870 assessed as polyoxin B MIC incubated for 72 hrs by checker board assay; format: functional
[38] = test system: Aspergillus fumigatus; experiment: Antifungal activity against Aspergillus fumigatus GIMCC 3.19 assessed as polyoxin B MIC incubated for 72 hrs by checker board assay; format: functional
[39] = test system: Cryptococcus neoformans; experiment: Antifungal activity against Cryptococcus neoformans ATCC 32719 assessed as polyoxin B MIC incubated for 72 hrs by checker board assay; format: functional

SMILES: O=C(/C=C/C(=O)N1CCCC12Cc1ccccc1NC2=O)Nc1ccc(Cl)cc1Cl (centres undefined)
inhibition [1]: 73.7%
IC50 [2]: 170 µM
MIC [3]: 4 µg/mL (≈ 9 µM)
MIC [4]: 8 µg/mL (≈ 18 µM)
MIC [5]: 8 µg/mL (≈ 18 µM)
MIC [6]: 16 µg/mL (≈ 36 µM)
MIC [7]: 64 µg/mL
MIC [8]: 128 µg/mL
MIC [9]: 64 µg/mL
MIC [10]: 128 µg/mL
MIC [11]: 64 µg/mL (≈ 144 µM)
MIC [12]: 64 µg/mL (≈ 144 µM)
MIC [13]: 64 µg/mL (≈ 144 µM)
MIC [14]: 64 µg/mL (≈ 144 µM)
MIC [15]: 64 µg/mL (≈ 144 µM)

SMILES: O=C(/C=C/C(=O)N1CCCC12Cc1ccccc1NC2=O)Nc1ccc(Cl)c(F)c1 (centres undefined)
inhibition [1]: 82.6%
IC50 [2]: 110 µM
MIC [3]: 2 µg/mL (≈ 4.67 µM)
MIC [4]: 4 µg/mL (≈ 9.35 µM)
MIC [5]: 4 µg/mL (≈ 9.35 µM)
MIC [6]: 8 µg/mL (≈ 18.7 µM)
MIC [7]: 16 µg/mL
MIC [8]: 64 µg/mL
MIC [9]: 32 µg/mL
MIC [10]: 64 µg/mL
MIC [11]: 32 µg/mL (≈ 74.8 µM)
MIC [12]: 32 µg/mL (≈ 74.8 µM)
MIC [13]: 128 µg/mL (≈ 299 µM)
MIC [14]: 256 µg/mL (≈ 598 µM)
MIC [15]: 32 µg/mL (≈ 74.8 µM)
MIC [16]: 0.5 µg/mL
MIC [17]: 2 µg/mL
MIC [18]: 1 µg/mL
MIC [19]: 4 µg/mL
MIC [20]: 1 µg/mL
MIC [21]: 1 µg/mL
MIC [22]: 1 µg/mL
MIC [23]: 8 µg/mL
fractional inhibitory concentration index (FICI) [24]: 1.5
fractional inhibitory concentration index (FICI) [25]: 0.5
fractional inhibitory concentration index (FICI) [26]: 0.63
fractional inhibitory concentration index (FICI) [27]: 0.5
MIC [28]: 2 µg/mL
MIC [29]: 4 µg/mL
MIC [30]: 2 µg/mL
MIC [31]: 4 µg/mL
fractional inhibitory concentration index (FICI) [32]: 2
fractional inhibitory concentration index (FICI) [33]: 2
fractional inhibitory concentration index (FICI) [34]: 0.75
fractional inhibitory concentration index (FICI) [35]: 0.75
MIC [36]: 8 µg/mL
MIC [37]: 8 µg/mL
MIC [38]: 2 µg/mL
MIC [39]: 4 µg/mL

SMILES: CCCCCOc1ccc(-c2cc(-c3ccc(C(=O)N[C@H]4C[C@@H](O)[C@@H](O)NC(=O)[C@@H]5[C@@H](O)[C@@H](C)CN5C(=O)[C@H]([C@H](O)CC(N)=O)NC(=O)[C@H]([C@H](O)[C@@H](O)c5ccc(O)c(OS(=O)(=O)O)c5)NC(=O)[C@@H]5C[C@@H](O)CN5C(=O)[C@H]([C@@H](C)O)NC4=O)cc3)no2)cc1 [MICAFUNGIN] (X1-[Orn(4R-OH,5R-OH)]T[Hyp][hTyr(3S-OH,4S-OH,3'-OSO3H)][Gln(3R-OH)][Pro(3S-OH,4S-Me)]; lactam 1-C)
MIC [15]: > 256 µg/mL

SMILES: O=C(/C=C/C(=O)N1CCCC12Cc1ccccc1NC2=O)Nc1ccc(Cl)cc1 (centres undefined)
inhibition [1]: 71.8%
IC50 [2]: 170 µM
MIC [3]: 4 µg/mL (≈ 9.76 µM)
MIC [4]: 8 µg/mL (≈ 19.5 µM)
MIC [5]: 4 µg/mL (≈ 9.76 µM)
MIC [6]: 16 µg/mL (≈ 39 µM)
MIC [7]: 32 µg/mL
MIC [8]: 64 µg/mL
MIC [9]: 64 µg/mL
MIC [10]: 128 µg/mL
MIC [11]: 128 µg/mL (≈ 312 µM)
MIC [12]: 64 µg/mL (≈ 156 µM)
MIC [13]: 64 µg/mL (≈ 156 µM)
MIC [14]: 128 µg/mL (≈ 312 µM)
MIC [15]: 128 µg/mL (≈ 312 µM)

Next, values leading:

inhibition [1]: 56.4%
IC50 [2]: 520 µM
MIC [3]: 8 µg/mL (≈ 17.6 µM)
MIC [4]: 16 µg/mL (≈ 35.2 µM)
MIC [5]: 16 µg/mL (≈ 35.2 µM)
MIC [6]: 16 µg/mL (≈ 35.2 µM)
SMILES: O=C(/C=C/C(=O)N1CCCC12Cc1ccccc1NC2=O)Nc1ccc(Br)cc1 (centres undefined)

inhibition [1]: 45.7%
IC50 [2]: 990 µM
MIC [3]: 16 µg/mL (≈ 39.7 µM)
MIC [4]: 32 µg/mL (≈ 79.3 µM)
MIC [5]: 32 µg/mL (≈ 79.3 µM)
MIC [6]: 32 µg/mL (≈ 79.3 µM)
SMILES: Cc1cc(C)cc(NC(=O)/C=C/C(=O)N2CCCC23Cc2ccccc2NC3=O)c1 (centres undefined)

inhibition [1]: 50.9%
IC50 [2]: 590 µM
MIC [3]: 16 µg/mL (≈ 39.5 µM)
MIC [4]: 32 µg/mL (≈ 78.9 µM)
MIC [5]: 8 µg/mL (≈ 19.7 µM)
MIC [6]: 32 µg/mL (≈ 78.9 µM)
SMILES: COc1ccc(NC(=O)/C=C/C(=O)N2CCCC23Cc2ccccc2NC3=O)cc1 (centres undefined)

inhibition [1]: 53.6%
IC50 [2]: 570 µM
MIC [3]: 8 µg/mL (≈ 18.8 µM)
MIC [4]: 16 µg/mL (≈ 37.6 µM)
MIC [5]: 16 µg/mL (≈ 37.6 µM)
MIC [6]: 64 µg/mL (≈ 150 µM)
SMILES: O=C(/C=C/C(=O)N1CCCC12Cc1ccccc1NC2=O)Nc1cccc2ccccc12 (centres undefined)
